In the test the target is T1, Zcchc11 enzyme (Homo sapiens, UniProt Q5TAX3).
T1 construct: made in house; host or cells: HEK293 cells (Zcchc11); E. coli Rosetta II (LIN28A)
T1 sequence (Q5TAX3 212-1420): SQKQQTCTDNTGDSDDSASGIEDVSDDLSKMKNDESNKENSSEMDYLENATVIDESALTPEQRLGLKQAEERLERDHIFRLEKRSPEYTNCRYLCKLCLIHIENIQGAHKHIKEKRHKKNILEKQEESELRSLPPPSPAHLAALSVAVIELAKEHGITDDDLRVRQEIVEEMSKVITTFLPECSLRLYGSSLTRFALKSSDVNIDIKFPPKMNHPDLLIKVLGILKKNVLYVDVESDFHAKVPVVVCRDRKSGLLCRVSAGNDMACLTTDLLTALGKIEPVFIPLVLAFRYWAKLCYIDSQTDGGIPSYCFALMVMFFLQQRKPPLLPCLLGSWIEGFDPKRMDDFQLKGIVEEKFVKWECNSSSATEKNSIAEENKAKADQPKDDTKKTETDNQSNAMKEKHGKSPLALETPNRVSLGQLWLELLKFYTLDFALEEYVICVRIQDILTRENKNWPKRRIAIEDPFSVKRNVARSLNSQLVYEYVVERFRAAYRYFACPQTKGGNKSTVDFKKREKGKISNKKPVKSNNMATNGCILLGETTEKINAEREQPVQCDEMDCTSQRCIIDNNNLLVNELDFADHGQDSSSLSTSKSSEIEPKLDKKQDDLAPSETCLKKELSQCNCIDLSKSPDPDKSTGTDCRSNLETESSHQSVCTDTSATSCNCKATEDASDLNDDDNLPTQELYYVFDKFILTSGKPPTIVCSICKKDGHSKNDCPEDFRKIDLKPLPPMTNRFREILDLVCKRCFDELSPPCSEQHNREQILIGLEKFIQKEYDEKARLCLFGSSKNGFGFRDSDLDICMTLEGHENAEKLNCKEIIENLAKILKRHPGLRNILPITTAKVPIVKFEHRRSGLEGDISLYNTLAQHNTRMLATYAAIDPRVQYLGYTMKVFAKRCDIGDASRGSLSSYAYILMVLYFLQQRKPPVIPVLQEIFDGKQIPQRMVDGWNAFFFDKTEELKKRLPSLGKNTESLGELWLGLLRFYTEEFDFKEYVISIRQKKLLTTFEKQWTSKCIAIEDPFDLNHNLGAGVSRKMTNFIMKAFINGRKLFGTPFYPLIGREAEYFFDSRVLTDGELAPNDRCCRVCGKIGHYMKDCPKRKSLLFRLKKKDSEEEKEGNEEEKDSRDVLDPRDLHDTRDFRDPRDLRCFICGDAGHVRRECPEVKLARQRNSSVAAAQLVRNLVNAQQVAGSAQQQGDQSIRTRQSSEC
Put plainly: TUTase assay (Zcchc11 assay, Lin28a-dependent polyuridylation of pre-let-7). It is filed as biochemical. Conditions: Lin28a-dependent Zcchc11 (Z11) TUTase assay; read-out: Potency Lin28a-dep Z11 IC50. In a few lines: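 LIN28A (10 nM) in pH 7.3 HEPES/KCl/MgCl2/DTT buffer was mixed with serially diluted compound, then 0.2 nM truncated human Zcchc11 and 2 nM labeled pre-let-7 were added for 30 min at room temperature. UTP (5 uM) and quench probe (4 nM) then started the reaction. Linear early rates gave IC50 values.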

Where only a bound is given, the exact number is not on record here.

As a reminder, the IC50 is the point on the concentration scale where inhibition reaches its midpoint. In the case of `Cc1cc(-n2cc(C(=O)O)c(=O)c3cc(F)c(N4CCC[C@@H]4COc4ccccn4)cc32)ccc1O` [Example 395, (R)-6-fluoro-1-(4-hydroxy-3-methylphenyl)-4-oxo-7-(2-((pyridin-2-yloxy)methyl)pyrrolidin-1-yl)-1,4-dihydroquinoline-3-carboxylic acid], the concentration for half-maximal inhibition (IC50) was in the range of 1 to 10 µM.

For the compound `Cc1cc(O)ccc1-n1cc(C(=O)O)c(=O)c2cc(F)c(N3CCC[C@@H]3COc3ccccn3)cc21` [Example 396, (R)-6-fluoro-1-(4-hydroxy-2-methylphenyl)-4-oxo-7-(2-((pyridin-2-yloxy)methyl)pyrrolidin-1-yl)-1,4-dihydroquinoline-3-carboxylic acid], the IC50 fell in the range of 1 to 10 µM. For the compound `Cc1c(F)cccc1-n1cc(C(=O)O)c(=O)c2cc(F)c(N3CCC[C@@H]3COc3ccccn3)cc21` [Example 397, (R)-6-fluoro-1-(3-fluoro-2-methylphenyl)-4-oxo-7-(2-((pyridin-2-yloxy)methyl)pyrrolidin-1-yl)-1,4-dihydroquinoline-3-carboxylic acid], the IC50 was 1 to 10 µM. Turning to `COc1ccc(Cl)c(-n2cc(C(=O)O)c(=O)c3cc(F)c(N4CCC[C@@H]4COc4ccccn4)cc32)c1` [Example 398, (R)-1-(2-chloro-5-methoxyphenyl)-6-fluoro-4-oxo-7-(2-((pyridin-2-yloxy)methyl)pyrrolidin-1-yl)-1,4-dihydroquinoline-3-carboxylic acid], the IC50 was 1 to 10 µM. Turning to `COc1cccc(-n2cc(C(=O)O)c(=O)c3cc(F)c(N4CCC[C@@H]4COc4ccccn4)cc32)c1` [Example 399, (R)-6-fluoro-1-(3-methoxyphenyl)-4-oxo-7-(2-((pyridin-2-yloxy)methyl)pyrrolidin-1-yl)-1,4-dihydroquinoline-3-carboxylic acid], the IC50 is ≤ 1 µM. For `COc1ccc(F)c(-n2cc(C(=O)O)c(=O)c3cc(F)c(N4CCC[C@@H]4COc4ccccn4)cc32)c1` [Example 400, (R)-6-fluoro-1-(2-fluoro-5-methoxyphenyl)-4-oxo-7-(2-((pyridin-2-yloxy)methyl)pyrrolidin-1-yl)-1,4-dihydroquinoline-3-carboxylic acid], the IC50 is 1 to 10 µM. The figure for `COc1ccc(-n2cc(C(=O)O)c(=O)c3cc(F)c(N4CCC[C@@H]4COc4ccccn4)cc32)cc1` [Example 401, (R)-6-fluoro-1-(4-methoxyphenyl)-4-oxo-7-(2-((pyridin-2-yloxy)methyl)pyrrolidin-1-yl)-1,4-dihydroquinoline-3-carboxylic acid] is ≤ 1 µM. Take `O=C(O)c1cn(-c2cnccn2)c2cc(N3CCC[C@@H]3COc3ccccn3)c(F)cc2c1=O` [Example 402, (R)-6-fluoro-4-oxo-1-(pyrazin-2-yl)-7-(2-((pyridin-2-yloxy)methyl)pyrrolidin-1-yl)-1,4-dihydroquinoline-3-carboxylic acid]: the 50% inhibitory concentration (IC50) was in the range of 1 to 10 µM.

Turning to `O=C(O)c1cn(-c2ccccc2CO)c2cc(N3CCC[C@@H]3COc3ccccn3)c(F)cc2c1=O` [Example 403, (R)-6-fluoro-1-(2-(hydroxymethyl)phenyl)-4-oxo-7-(2-((pyridin-2-yloxy)methyl)pyrrolidin-1-yl)-1,4-dihydroquinoline-3-carboxylic acid], the IC50 is 1 to 10 µM.

On to `CCc1ccccc1-n1cc(C(=O)O)c(=O)c2cc(F)c(N3CCC[C@@H]3COc3ccccn3)cc21` [Example 404, (R)-1-(2-ethylphenyl)-6-fluoro-4-oxo-7-(2-((pyridin-2-yloxy)methyl)pyrrolidin-1-yl)-1,4-dihydroquinoline-3-carboxylic acid], for which the half-maximal inhibitory concentration (IC50) lay in the range of 1 to 10 µM. As for `O=C(O)c1cn(-c2ccc(OCCO)cc2)c2cc(N3CCC[C@@H]3COc3ccccn3)c(F)cc2c1=O` [Example 405, (R)-6-fluoro-1-(4-(2-hydroxyethoxy)phenyl)-4-oxo-7-(2-((pyridin-2-yloxy)methyl)pyrrolidin-1-yl)-1,4-dihydroquinoline-3-carboxylic acid], the figure is ≤ 1 µM; as for `COCCOc1ccc(-n2cc(C(=O)O)c(=O)c3cc(F)c(N4CCC[C@@H]4COc4ccccn4)cc32)cc1` [Example 406, (R)-6-fluoro-1-(4-(2-methoxyethoxy)phenyl)-4-oxo-7-(2-((pyridin-2-yloxy)methyl)pyrrolidin-1-yl)-1,4-dihydroquinoline-3-carboxylic acid], ≤ 1 µM. As for `COCc1ccccc1-n1cc(C(=O)O)c(=O)c2cc(F)c(N3CCC[C@@H]3COc3ccccn3)cc21` [Example 407, (R)-6-fluoro-1-(2-(methoxymethyl)phenyl)-4-oxo-7-(2-((pyridin-2-yloxy)methyl)pyrrolidin-1-yl)-1,4-dihydroquinoline-3-carboxylic acid], the figure is 1 to 10 µM; as for `O=C(O)c1cn(-c2ccc(O)c(Cl)c2)c2cc(N3CCC[C@@H]3COc3ccccn3)c(F)cc2c1=O` [Example 408, (R)-1-(3-chloro-4-hydroxyphenyl)-6-fluoro-4-oxo-7-(2-((pyridin-2-yloxy)methyl)pyrrolidin-1-yl)-1,4-dihydroquinoline-3-carboxylic acid], ≤ 1 µM; as for `O=C(O)c1cn(-c2ccc(O)c(Cl)c2)c2cc(N3CCC[C@@H]3COc3ccccn3)c(Cl)cc2c1=O` [Example 409, (R)-6-chloro-1-(3-chloro-4-hydroxyphenyl)-4-oxo-7-(2-((pyridin-2-yloxy)methyl)pyrrolidin-1-yl)-1,4-dihydroquinoline-3-carboxylic acid], ≤ 1 µM. As for `O=C(O)c1cn(-c2ccc(O)nn2)c2cc(N3CCC[C@@H]3COc3ccccn3)c(F)cc2c1=O` [Example 410, (R)-6-fluoro-1-(6-hydroxypyridazin-3-yl)-4-oxo-7-(2-((pyridin-2-yloxy)methyl)pyrrolidin-1-yl)-1,4-dihydroquinoline-3-carboxylic acid], the figure is 1 to 10 µM; as for `O=C(O)c1cn(-c2cnc(CO)cn2)c2cc(N3CCC[C@@H]3COc3ncccc3Cl)c(Cl)cc2c1=O` [Example 411, (R)-6-chloro-7-(2-(((3-chloropyridin-2-yl)oxy)methyl)pyrrolidin-1-yl)-1-(5-(hydroxy-methyl)pyrazin-2-yl)-4-oxo-1,4-dihydroquinoline-3-carboxylic acid], ≤ 1 µM. Turning to `Cc1cccnc1OC[C@H]1CCCN1c1cc2c(cc1F)c(=O)c(C(=O)O)cn2-c1ccc(NS(C)(=O)=O)cc1` [Example 412, (R)-6-fluoro-7-(2-(((3-methylpyridin-2-yl)oxy)methyl)pyrrolidin-1-yl)-1-(4-(methyl-sulfonamido)phenyl)-4-oxo-1,4-dihydroquinoline-3-carboxylic acid], the IC50 is ≤ 1 µM.

Turning to `COCCNc1ccc(-n2cc(C(=O)O)c(=O)c3cc(Cl)c(N4CCC[C@@H]4COc4ncccc4Cl)cc32)cn1` [Example 413, (R)-6-chloro-7-(2-(((3-chloropyridin-2-yl)oxy)methyl)pyrrolidin-1-yl)-1-(6-((2-methoxyethyl)amino)pyridin-3-yl)-4-oxo-1,4-dihydroquinoline-3-carboxylic acid], the IC50 is ≤ 1 µM.

Consider `O=C(O)c1cn(-c2ccc(O)nc2)c2cc(N3CCC[C@@H]3COc3ncccc3Cl)c(Cl)cc2c1=O` [Example 414, (R)-6-chloro-7-(2-(((3-chloropyridin-2-yl)oxy)methyl)pyrrolidin-1-yl)-1-(6-hydroxy-pyridin-3-yl)-4-oxo-1,4-dihydroquinoline-3-carboxylic acid], for which the IC50 is ≤ 1 µM.

The values are drawn from patent publication US12662491B2 (Redona Therapeutics, Inc., priority 2020, dated 2026).
